Experimental data taken from PMC5048394, “Development and substrate specificity screening of an in vivo biosensor for the detection of biomass derived aromatic chemical building blocks” (Chemical Communications (Cambridge, England), 2016).
Where two headings read alike, the source gives them in different places.

Key:
PLC biosensor [1] = test: microbe, parasite or virus in culture; assay type: cell-based, E. coli BL21
Protocol: (§1) Cells were centrifuged, washed and re-suspended with PBS buffer. The expression output was then analyzed by monitoring the fluorescence normalised to cell density (RFU/OD600) in a multimode plate reader (Methods, ESI ^†).
(§2) The sequences containing the PLC, PPC and PferB promoters, a RBS, and a Hexa-Histidine tag, flanked by SphI/NdeI were synthetized (GeneART, ThermoFisher). The sequences were enzyme restricted with SphI/NdeI and cloned in pET44eGFP,2 upstream to the eGFP gene, replacing the T7 promoter region generating respectively, the pET44PLCeGFP, pET44PPCeGFP and pET44PferBeGFP vectors.
(§3) The FerCA DNA sequence containing the ferA and ferC genes, individually flanked by a PLacI promoter and an rrn_B1 terminator, was synthetized by GeneARTTM (ThermoFisher).
(§4) The construct was cloned in a p15 plasmid flanked by NaeI/KasI restriction sites generating […]
(§5) the p15FerCA vector. […]
(§6) Biosensors Performance and Screening Methods
(§7) Reporter controls and the biosensor systems PLC, PPC and PferB were respectively generated by transformation of pET44PLCeGFP, pET44PPCeGFP and pET44PFerBeGFP vectors alone or with p15FerCA in BL21 and DH10B chemically competent E. coli cells. A single colony of each system was grown in LB media supplemented with antibiotics at 37 °C with shaking at 180rpm for 16 hours. Cultures were diluted (1:100) in fresh LB media with appropriate antibiotics, re-incubated at 37 °C with shaking until OD ~0.6 and transferred (450 μL) to multi- […]
(§8) μM and 1000 μM. Induction plates were incubated at 37 °C, with shaking at 1000 RPM (Stuart microtitre plate shaker incubator) for 3 hours. Cells were harvested by centrifugation, washed twice and re-suspended with PBS buffer. Expression output was analyzed by monitoring the fluorescence normalised to cell density (RFU/OD) in a multimode plate reader. […]
Compounds for screening were selected using cinnamic acid as a reference structure. The 58 selected compounds were tested with the PLC biosensor in E. coli BL21 cells. The substrate screening assays were performed using concentrations ranging from 0.32 μM to 1000 μM, as described for Ferulic acid. […]
(§9) Data Processing and Curve Fitting
(§10) Biosensor signal output (eGFP expression) was measured as Relative Fluorescence Units (RFU) and normalised to cell density (OD600). The background auto-fluorescence of E. coli was subtracted from RFU/OD and was normalised (%) to the pLC biosensor response curve to ferulic acid for each experiment. The normalised data was plotted and fitted with a dose-response curve using the Levenberg Marquardt logistic growth/sigmoidal algorithm, using the Origin 2015 (OriginLab, Northampton MA USA) program. The biomass screening data was […]

[2] = test system: ferA knock-out (AKO) PLC and PferB systems; test: FerA knock-out (AKO) system FA induction assay; assay type: cell-based; conditions: ferA knock-out (AKO) strains, E. coli BL21
Excerpt: as §2, §3
The construct was cloned in a p15 plasmid flanked by NaeI/KasI restriction sites generating the p15FerCA vector. The ferA gene was removed by restriction digestion of two XbaI flanking sites. The remaining backbone with ferC was re-circularized to originate the p15FerC vector, and the obtained plasmid was sequenced to confirm identity.
as §6
Reporter controls and the biosensor systems PLC, PPC and PferB were respectively generated by transformation of pET44PLCeGFP, pET44PPCeGFP and pET44PFerBeGFP vectors alone or with p15FerCA in BL21 and DH10B chemically competent E. coli cells. […] Expression output was analyzed by monitoring the fluorescence normalised to cell density (RFU/OD) in a multimode plate reader. […]

PferB biosensor [3] = test: PferB biosensor eGFP expression in E. coli K strain (DH10B, Top10F'); assay type: cell-based
Protocol: as §1, §2, §3, §4, §5, §6, §7, §8, §9, §10

PLC biosensor [4] = test: PLC biosensor eGFP expression in E. coli K strain (DH10B, Top10F'); assay type: cell-based
Protocol: as §1, §2, §3, §4, §5, §6, §7, §8, §9, §10

PferB biosensor [5] = test: PferB biosensor eGFP expression (RFU/OD600) in E. coli BL21; assay type: cell-based
Protocol: as §1, §2, §3, §4, §5, §6, §7, §8, §9, §10

PPC biosensor [6] = test: PPC biosensor eGFP expression in E. coli K strain (DH10B, Top10F'); assay type: cell-based
Protocol: as §1, §2, §3, §4, §5, §6, §7, §8, §9, §10

PPC biosensor [7] = test: PPC biosensor eGFP expression (RFU/OD600) in E. coli BL21; assay type: cell-based
Protocol: as §1, §2, §3, §4, §5, §6, §7, §8, §9, §10

[8] = Escherichia coli, BL21, ferulic acid dose response, PLC biosensor, E. coli BL21
[9] = Escherichia coli, BL21, substrate screening, PLC biosensor, E. coli BL21
[10] = ferulic acid, PLC biosensor, E. coli BL21, text
[11] = ferulic acid dose response, PferB biosensor, Top10F' (DH10B)
[12] = PLC biosensor, E. coli K strain (DH10B)
[13] = ferulic acid dose response, PLC biosensor, Top10F' (DH10B)
[14] = ferulic acid dose response, PferB biosensor, E. coli BL21
[15] = ferulic acid dose response, PPC biosensor, Top10F' (DH10B)
[16] = ferulic acid dose response, PPC biosensor, E. coli BL21

In the case of `COc1cc(/C=C/C(=O)O)ccc1O` [compound 1, trans-Ferulic acid], the EC10 (PLC biosensor [1]; [8]) is reported as 5.6 µM, the EC50 (PLC biosensor [1]; [8]) is reported as 20.9 ± 4.2 µM and the EC90 (PLC biosensor [1]; [8]) is reported as 77.4 µM. For the same compound, the Emax (PLC biosensor [1]; Escherichia coli, BL21, read-out: Induction) was greater than 70%, the maximal fold induction (PLC biosensor [1]; Escherichia coli, BL21, read-out: Signal range (max/min), ferulic acid dose response, PLC biosensor, E. coli BL21) was 22.8 and the maximal fold induction (PLC biosensor [1]; Escherichia coli, BL21, read-out: Signal range (max/min), substrate screening, PLC biosensor, E. coli BL21) was 26.2. For the same compound, the EC10 (PLC biosensor [1]; [9]) was 3.9 µM, the EC50 (PLC biosensor [1]; [9]) was 15.3 ± 0.9 µM and the EC90 (PLC biosensor [1]; [9]) was 59.5 µM. For the same compound, the Saturation concentration (PLC biosensor [1]; ferulic acid dose response, PLC biosensor, E. coli BL21) was no less than 100 µM, the “De-repression (incomplete), % of the PLC reporter” value (PLC biosensor [1]; ferulic acid, PLC biosensor, E. coli BL21) was roughly 85% and the Sensing range (PLC biosensor [1]; [10]) was 13 fold. The Signal range (PLC biosensor [1]; [10]) was roughly 23 fold, the Induction (PLC biosensor [1]; substrate screening, PLC biosensor, E. coli BL21, 0.32–1000 μM) was “H (high output signals, and hence good efficacy (>70%))” and the Signal read-out range (PLC biosensor [1]; substrate screening, PLC biosensor, E. coli BL21, text) was greater than 25 fold. The “De-repression phenotype upon addition to growth media” value [2] was “lacked the de-repression phenotype”, the EC50 (PferB biosensor [3]; Escherichia coli) was 79.6 µM and the EC90 (PferB biosensor [3]; Escherichia coli) was 276 µM. The De-repression (PferB biosensor [3]; PferB biosensor, E. coli K strain (DH10B)) was “complete de-repression”, the EC10 (PferB biosensor [3]; [11]) was 22.9 µM and the “Ebasal (fitting curve)” value (PferB biosensor [3]; [11]) was 4.3 RFU/OD. For the same compound, the “Emax (fitting curve)” value (PferB biosensor [3]; [11]) was 20.5 RFU/OD, the “Sensing range (EC90/EC10)” value (PferB biosensor [3]; [11]) was 12.0 and the “Signal range (max/min)” value (PferB biosensor [3]; [11]) was 4.7. For the same compound, the “p (fitting curve)” value (PferB biosensor [3]; [11]) was 1.8, the EC50 (PLC biosensor [4]; Escherichia coli) was 22.8 ± 5.2 µM and the EC90 (PLC biosensor [4]; Escherichia coli) was 83 µM. For the same compound, the De-repression (PLC biosensor [4]; [12]) was “incomplete de-repression”, the Relative signal range (PLC biosensor [4]; [12]) was roughly 19 fold and the “Sensing range (EC90/EC10)” value (PLC biosensor [4]; [12]) was 13 fold. For the same compound, the EC10 (PLC biosensor [4]; [13]) was 6.3 µM, the “Ebasal (fitting curve)” value (PLC biosensor [4]; [13]) was 6.1 RFU/OD and the “Emax (fitting curve)” value (PLC biosensor [4]; [13]) was 100.0 RFU/OD. The “Sensing range (EC90/EC10)” value (PLC biosensor [4]; [13]) was 13.3, the “Signal range (max/min)” value (PLC biosensor [4]; [13]) was 19.2 and the “p (fitting curve)” value (PLC biosensor [4]; [13]) was 1.7. For the same compound, the EC50 (PferB biosensor [5]; Escherichia coli, BL21) was 60.5 ± 2.3 µM, the EC90 (PferB biosensor [5]; Escherichia coli, BL21) was 191 µM and the EC10 (PferB biosensor [5]; [14]) was 19.2 µM. The “Ebasal (fitting curve)” value (PferB biosensor [5]; [14]) was 3.7 RFU/OD, the “Emax (fitting curve)” value (PferB biosensor [5]; [14]) was 17.0 RFU/OD and the “Sensing range (EC90/EC10)” value (PferB biosensor [5]; [14]) was 9.9. The “Signal range (max/min)” value (PferB biosensor [5]; [14]) was 5.0, the “p (fitting curve)” value (PferB biosensor [5]; [14]) was 1.9 and the De-repression (PferB biosensor [5]; ferulic acid, PferB biosensor, E. coli BL21) was “effectively de-repressed”. The EC50 (PPC biosensor [6]; Escherichia coli) was 10.4 µM, the EC90 (PPC biosensor [6]; Escherichia coli) was 33.3 µM and the De-repression (PPC biosensor [6]; PPC biosensor, E. coli K strain (DH10B)) was “complete de-repression”. The EC10 (PPC biosensor [6]; [15]) was 3.3 µM, the “Ebasal (fitting curve)” value (PPC biosensor [6]; [15]) was 4.7 RFU/OD and the “Emax (fitting curve)” value (PPC biosensor [6]; [15]) was 44.7 RFU/OD. The “Sensing range (EC90/EC10)” value (PPC biosensor [6]; [15]) was 10.2, the “Signal range (max/min)” value (PPC biosensor [6]; [15]) was 12.4 and the “p (fitting curve)” value (PPC biosensor [6]; [15]) was 1.9. For the same compound, the EC50 (PPC biosensor [7]; Escherichia coli, BL21) was 11.2 ± 1.1 µM, the EC90 (PPC biosensor [7]; Escherichia coli, BL21) was 38 µM and the “Concentration for complete de-repression” value (PPC biosensor [7]; [16]) was no less than 40 µM. For the same compound, the EC10 (PPC biosensor [7]; [16]) was 3.3 µM, the “Ebasal (fitting curve)” value (PPC biosensor [7]; [16]) was 4.2 RFU/OD and the “Emax (fitting curve)” value (PPC biosensor [7]; [16]) was 46.6 RFU/OD. For the same compound, the “Sensing range (EC90/EC10)” value (PPC biosensor [7]; [16]) was 11.5, the “Signal range (max/min)” value (PPC biosensor [7]; [16]) was 10.4 and the “p (fitting curve)” value (PPC biosensor [7]; [16]) was 1.8.
